What was measured:
Format in all cases: cell-based
[1] = tested on: human hepatic stellate cells LX-2; assay: Anti-fibrosis activity test: inhibition of proliferation of human hepatic stellate cells LX-2 (CCK-8); conditions: Homo sapiens, 48 h
Procedure, shortened: (§1)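 Read-out: absorbance at 450 nm after 2 h with CCK-8, following 48 h of compound exposure of adhered cells (2×10^4 cells/mL, 24 h attachment, 37° C, 5% CO2). Proliferation inhibition was taken relative to the blank control, and IC50 values were calculated from it.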

NF-κB = assay: Immunological activity test: inhibition of NF-κB activity; conditions: initial concentration of 30 μM; a/b isomers given as first/second symbol; read-out: IC50 (μM), inhibitory activity against NF-κB
Procedure, shortened: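 IC50 values come from further analysis of the data after an initial test at a single 30 μM concentration. Parthenolide served as the reference inhibitor.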

[2] = tested on: human fibrosarcoma cells HT-1080; assay: Anti-fibrosis activity test: inhibition of proliferation of human fibrosarcoma cells HT-1080 (CCK-8); conditions: Homo sapiens, HT-1080, 48 h
Procedure, shortened: as §1

[3] = tested on: cardiac fibroblast RAT-iCell-C002; assay: Anti-fibrosis activity test: inhibition of proliferation of cardiac fibroblast RAT-iCell-C002 (CCK-8); conditions: Cardiac fibroblast, 48 h
Procedure, shortened: as §1

[4] = tested on: human dermal fibroblasts CCC-ESF-1; assay: Anti-fibrosis activity test: inhibition of proliferation of human dermal fibroblasts CCC-ESF-1 (CCK-8); conditions: Fibroblast
Procedure, shortened: as §1

[5] = tested on: mouse macrophages (RAW264.7); assay: Lipopolysaccharide-induced NO secretion in macrophages (Griess); conditions: Mus musculus, RAW264.7, 24 h, RAW264.7, LPS 1 μg/ml, a/b isomers given as first/second symbol, read-out: IC50 (μM), inhibition of lipopolysaccharide-induced NO secretion in macrophages
Procedure, shortened: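 Absorbance at 548 nm after Griess reagent addition to culture supernatant gave NO content; inhibition rate was derived relative to blank control. Cells were mouse RAW264.7 macrophages exposed to compounds and 1 μg/ml LPS for 24 hours.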

BHK-21 cells = assay: Anti-fibrosis activity test: inhibition of BHK-21 cell proliferation (CCK-8); conditions: Mesocricetus auratus, BHK-21, 48 h
Procedure, shortened: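 Cells seeded at 2×10^4 cells/mL, allowed to adhere 24 hours, then exposed to graded compound concentrations in triplicate for 48 hours at 37° C, 5% CO2. CCK-8 added for 2 hours, absorbance read at 450 nm; inhibition versus blank control used to derive IC50. Pirfenidone served as positive control.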

[6] = tested on: human embryonic lung fibroblast IMR-90; assay: Anti-fibrosis activity test: inhibition of proliferation of human embryonic lung fibroblast IMR-90 (CCK-8)
Procedure, shortened: as §1

[7] = tested on: human lung fibroblasts HFL1; assay: Anti-fibrosis activity test: inhibition of proliferation of human lung fibroblasts HFL1 (CCK-8); conditions: Homo sapiens, HFL1, 48 h
Procedure, shortened: as §1

[8] = human hepatic stellate cells LX-2, CCK-8, 48 hours
[9] = human fibrosarcoma cells HT-1080, CCK-8, 48 hours
[10] = cardiac fibroblast RAT-iCell-C002, CCK-8, 48 hours
[11] = human dermal fibroblasts CCC-ESF-1, CCK-8, 48 hours
[12] = CCK-8, 48 hours after administration
[13] = human embryonic lung fibroblast IMR-90, CCK-8, 48 hours
[14] = human lung fibroblasts HFL1, CCK-8, 48 hours

Row | SMILES | IC50 (NF-κB) | IC50 [2, 9] | IC50 [5] | IC50 ([2]; HT-1080 cells, 48 h, CCK-8) | IC50 [1, 8] | IC50 [3, 10] | IC50 [4, 11] | IC50 (BHK-21 cells; [12]) | IC50 [6, 13] | IC50 [7, 14] | IC50 ([1]; LX-2, 48 h, LX-2 cells, CCK-8) | IC50 ([3]; RAT-iCell-C002 cells, CCK-8) | IC50 ([4]; Homo sapiens, CCC-ESF-1 cells, 48 h, CCK-8) | IC50 (BHK-21 cells; 48 h, CCK-8) | IC50 ([6]; Homo sapiens, IMR-90 cells, 48 h, CCK-8) | IC50 ([7]; HFL1 cells, 48 h, CCK-8)
1 | CCOC(=O)/C=C/Cn1c2c(c(=O)c3ccccc31)C(=O)n1cccc1-2 [Compound 661a, Ethyl (E)-4-(9,10-dioxo-9H-pyrrolizino[1,2-b]quinolin-4(10H)-yl)but-2-enoate] | 0.1 to 1 µM | 0.05 to 5 mM | 1 to 10 µM |  | 0.05 to 5 mM | 0.05 to 5 mM | 0.05 to 5 mM | < 0.05 mM | 0.05 to 5 mM | 0.05 to 5 mM |  |  |  |  |  | 
2 | N#Cc1cccc2c(O)c3c(nc12)-c1cccn1C3=O [Compound 447b, 9-hydroxy-10-oxo-10H-pyrrolizino[1,2-b]quinoline-5-carbonitrile] | 0.1 to 1 µM | 0.05 to 5 mM | 1 to 10 µM |  | 0.05 to 5 mM | 0.05 to 5 mM | 0.05 to 5 mM | 0.05 to 5 mM | 0.05 to 5 mM | 0.05 to 5 mM |  |  |  |  |  | 
3 | O=C(O)Cn1c2c(c(=O)c3cc(C(F)(F)F)ccc31)C(=O)n1cccc1-2 [Compound 279a, 2-(9,10-dioxo-7-(trifluoromethyl)-9H-pyrrolizino[1,2-b]quinolin-4(10H)-yl)acetic acid] | 1 to 10 µM | 0.05 to 5 mM | 1 to 10 µM |  | 0.05 to 5 mM | 0.05 to 5 mM | 0.05 to 5 mM | 0.05 to 5 mM | 0.05 to 5 mM | 0.05 to 5 mM |  |  |  |  |  | 
4 | O=C1c2c(nc3ccccc3c2OCc2ccc(F)c(F)c2)-c2cccn21 [Compound 601b, 9-((3,4-difluorobenzyl)oxy)-10H-pyrrolizino[1,2-b]quinolin-10-one] | 1 to 10 µM | 0.05 to 5 mM | 1 to 10 µM |  | 0.05 to 5 mM | 0.05 to 5 mM | 0.05 to 5 mM | 0.05 to 5 mM | 0.05 to 5 mM | 0.05 to 5 mM |  |  |  |  |  | 
5 | C=CCOc1c2c(nc3ccccc13)-c1cccn1C2=O [Compound 6b, 9-(allyloxy)-10H-pyrrolizino[1,2-b]quinolin-10-one] | 1 to 10 µM | 0.05 to 5 mM | 1 to 10 µM |  | 0.05 to 5 mM | 0.05 to 5 mM | 5 to 20 mM | 0.05 to 5 mM | 0.05 to 5 mM | 0.05 to 5 mM |  |  |  |  |  | 
6 | CC(C)(O)Cn1c2c(c(=O)c3ccccc31)C(=O)n1cccc1-2 [Compound 660a, 4-(2-Hydroxy-2-methylpropyl)-9H-pyrrolizino[1,2-b]quinoline-9,10(4H)-dione] | 1 to 10 µM | 0.05 to 5 mM | 1 to 10 µM |  | 0.05 to 5 mM | 0.05 to 5 mM | 0.05 to 5 mM | 0.05 to 5 mM | 0.05 to 5 mM | 0.05 to 5 mM |  |  |  |  |  | 
7 | Cc1cc2n(c1)C(=O)c1[nH]c3ccccc3c(=O)c1-2 [Compound 798a, 2-Methyl-5H-pyrrolizino[2,1-b]quinoline-5,11(6H)-dione] | 1 to 10 µM |  | 1 to 10 µM | 0.05 to 5 mM |  |  |  |  |  |  | 0.05 to 5 mM | 0.05 to 5 mM | 0.05 to 5 mM | < 0.05 mM | 0.05 to 5 mM | 0.05 to 5 mM
8 | CC(C)=CCOc1c2c(nc3ccc(F)cc13)-c1cccn1C2=O [Compound 112b, 7-fluoro-9-((3-methylbut-2-en-1-yl)oxy)-10H-pyrrolizino[1,2-b]quinolin-10-one] | 1 to 10 µM | 0.05 to 5 mM | 1 to 10 µM |  | 0.05 to 5 mM | 0.05 to 5 mM | 0.05 to 5 mM | 0.05 to 5 mM | 0.05 to 5 mM | 0.05 to 5 mM |  |  |  |  |  | 
9 | O=C1c2c([nH]c3c(O)cccc3c2=O)-c2cccn21 [Compound 445a, 5-Hydroxy-9H-pyrrolizino[1,2-b]quinoline-9,10(4H)-dione] | 1 to 10 µM | 0.05 to 5 mM | 1 to 10 µM |  | 0.05 to 5 mM | 0.05 to 5 mM | 0.05 to 5 mM | 0.05 to 5 mM | 0.05 to 5 mM | 0.05 to 5 mM |  |  |  |  |  | 
10 | O=C1c2c(n(Cc3cccc([N+](=O)[O-])c3)c3ccccc3c2=O)-c2cccn21 [Compound 583a, 4-(3-Nitrobenzyl)-9H-pyrrolizino[1,2-b]quinoline-9,10(4H)-dione] | 1 to 10 µM | 0.05 to 5 mM | 1 to 10 µM |  | 0.05 to 5 mM | 0.05 to 5 mM | 0.05 to 5 mM | 0.05 to 5 mM | 0.05 to 5 mM | 0.05 to 5 mM |  |  |  |  |  | 
11 | CN(C)CCCn1c2c(c(=O)c3ccccc31)C(=O)n1cccc1-2 [Compound 658a, 4-(3-(Dimethylamino)propyl)-9H-pyrrolizino[1,2-b]quinoline-9,10(4H)-dione] | 0.001 to 0.1 µM | 0.05 to 5 mM | 1 to 10 µM |  | 0.05 to 5 mM | 0.05 to 5 mM | 0.05 to 5 mM | 0.05 to 5 mM | 0.05 to 5 mM | 0.05 to 5 mM |  |  |  |  |  | 
12 | O=C1c2c(nc3cc(F)ccc3c2O)-c2cccn21 [Compound 488b, 6-fluoro-9-hydroxy-10H-pyrrolizino[1,2-b]quinolin-10-one] | 10 to 50 µM | 0.05 to 5 mM | 1 to 10 µM |  | 0.05 to 5 mM | 0.05 to 5 mM | 0.05 to 5 mM | 0.05 to 5 mM | 0.05 to 5 mM | 0.05 to 5 mM |  |  |  |  |  | 

The next lines start with results.

Row | IC50 (NF-κB) | IC50 [2, 9] | IC50 [5] | IC50 ([2]; HT-1080 cells, 48 h, CCK-8) | SMILES | IC50 [1, 8] | IC50 [3, 10] | IC50 [4, 11] | IC50 (BHK-21 cells; [12]) | IC50 [6, 13] | IC50 [7, 14] | IC50 ([1]; LX-2, 48 h, LX-2 cells, CCK-8) | IC50 ([3]; RAT-iCell-C002 cells, CCK-8) | IC50 ([4]; Homo sapiens, CCC-ESF-1 cells, 48 h, CCK-8) | IC50 (BHK-21 cells; 48 h, CCK-8) | IC50 ([6]; Homo sapiens, IMR-90 cells, 48 h, CCK-8) | IC50 ([7]; HFL1 cells, 48 h, CCK-8)
13 | 1 to 10 µM | < 0.05 mM | 1 to 10 µM |  | Cc1ccc(Cn2c3c(c(=O)c4ccccc42)C(=O)n2cccc2-3)cc1 [Compound 604a, 4-(4-Methylbenzyl)-9H-pyrrolizino[1,2-b]quinoline-9,10(4H)-dione] | 0.05 to 5 mM | 0.05 to 5 mM | 0.05 to 5 mM | 0.05 to 5 mM | 0.05 to 5 mM | 0.05 to 5 mM |  |  |  |  |  | 
14 | 0.1 to 1 µM | 0.05 to 5 mM | 1 to 10 µM |  | O=C1c2c(n(Cc3cc(F)cc(F)c3)c3ccccc3c2=O)-c2cccn21 [Compound 579a, 4-(3,5-Difluorobenzyl)-9H-pyrrolizino[1,2-b]quinoline-9,10(4H)-dione] | 0.05 to 5 mM | 0.05 to 5 mM | 0.05 to 5 mM | 0.05 to 5 mM | 0.05 to 5 mM | 0.05 to 5 mM |  |  |  |  |  | 
15 | 1 to 10 µM | 0.05 to 5 mM | 1 to 10 µM |  | O=C1c2c(nc3c(F)cccc3c2OCc2cccc(F)c2)-c2cccn21 [Compound 458b, 5-fluoro-9-((3-fluorobenzyl)oxy)-10H-pyrrolizino[1,2-b]quinolin-10-one] | 0.05 to 5 mM | 0.05 to 5 mM | 0.05 to 5 mM | 0.05 to 5 mM | 0.05 to 5 mM | 0.05 to 5 mM |  |  |  |  |  | 
16 | 0.1 to 1 µM | 0.05 to 5 mM | 1 to 10 µM |  | O=C1c2c(n(Cc3ccc([N+](=O)[O-])cc3)c3ccccc3c2=O)-c2cccn21 [Compound 593a, 4-(4-Nitrobenzyl)-9H-pyrrolizino[1,2-b]quinoline-9,10(4H)-dione] | 0.05 to 5 mM | 0.05 to 5 mM | 0.05 to 5 mM | 0.05 to 5 mM | 0.05 to 5 mM | 0.05 to 5 mM |  |  |  |  |  | 
17 | 1 to 10 µM | 0.05 to 5 mM | 1 to 10 µM |  | O=C1c2c(nc3cccc(Cl)c3c2O)-c2cccn21 [Compound 464b, 8-chloro-9-hydroxy-10H-pyrrolizino[1,2-b]quinolin-10-one] | 0.05 to 5 mM | 0.05 to 5 mM | 0.05 to 5 mM | 0.05 to 5 mM | 0.05 to 5 mM | < 0.05 mM |  |  |  |  |  | 
18 | 1 to 10 µM | 0.05 to 5 mM | 0.1 to 1 µM |  | C#CCOc1c2c(nc3ccccc13)-c1cccn1C2=O [Compound 7b, 9-(prop-2-yn-1-yloxy)-10H-pyrrolizino[1,2-b]quinolin-10-one] | 0.05 to 5 mM | 0.05 to 5 mM | < 0.05 mM | 0.05 to 5 mM | 0.05 to 5 mM | 0.05 to 5 mM |  |  |  |  |  | 
19 | 0.1 to 1 µM | 0.05 to 5 mM | 1 to 10 µM |  | O=C1c2c(n(Cc3ccc(F)cc3)c3cccc(F)c3c2=O)-c2cccn21 [Compound 468a, 8-Fluoro-4-(4-fluorobenzyl)-9H-pyrrolizino[1,2-b]quinoline-9,10(4H)-dione] | 0.05 to 5 mM | 0.05 to 5 mM | 0.05 to 5 mM | < 0.05 mM | 0.05 to 5 mM | 0.05 to 5 mM |  |  |  |  |  | 

Source: patent publication US11040028B2, “Penicinotam derivative, preparation method and use thereof” (OCEAN UNIVERSITY OF CHINA, priority 2017, dated 2021)
